Tests used:
[1] = Pharmacokinetic study in dogs; type: in vivo; conditions: beagle dogs
Source text: FIG. 4 is a graph of plasma concentration versus time for both oral and iv dosing.

MM1S subcutaneous tumor = test: MM1S xenograft model; type: in vivo, SCID/Beige mice; conditions: oral gavage five times per week
Experimental: (§1) Female SCID/Beige mice at age 4 weeks were housed in ventilated micro-isolator cages (INNOCAGE®IVC, Innovive Inc., San Diego, Calif.) in a controlled climate, fed with sterile high-fat diet (Problab-RMH 2000) ad libitum and provided with sterilized water. All housing and supplies for SCID/Beige mice were sterilized by autoclaving before use. Mice were inspected daily including weekends/holidays by trained animal facility personnel and investigators. All animal procedures were performed under sterile conditions within a biosafety cabinet (for injections) or laminar flow hood (for animal husbandry and non-invasive procedures).
(§2) MM1S human MINI cells (Gold-Leikin R E, et al., J Lab Clin Invest. 1980; 113:335-345) were originally obtained from peripheral blood of a multiple myeloma patient. Cryopreserved cells were thawed in a 37° C. water bath and cultured in RPMI medium plus 10% Fetal Bovine Serum (FBS) in a tissue culture incubator at 5% CO2. Cells were sent to outside vendors for contaminants and rodent pathogen screening intended to rule out contamination by mycoplasma (by PCR) and/or virus (by MAP test, Mouse Antibody Production). […] The implanted mice were monitored for general health and tumor development daily.
(§3) Tumors were detectable about two weeks following implantation. Tumor size was measured with a caliper. […]
During each animal study, tumors were measured with calipers, tumor size determined using the above mentioned formula, and tumor size changes in percentage calculated. Mouse body weights were measured with a scale twice per week. […] In addition to the determination of tumor size changes, the last tumor measurement was used to generate the tumor weight change ratio (T/C value), a standard metric developed by the National Cancer Institute (NCI) for xenograft tumor evaluation T/C values were calculated using the following formula: % T/C=100×ΔT/ΔC if ΔT>0. […]
The treatment period was 15 days. Tumor sizes and body weights were measured again on the last day of the study.

MM1R subcutaneous tumor = test: MM1R xenograft model; type: in vivo, SCID/Beige mice; conditions: oral gavage five times per week
Experimental: as §1
as §2, with “MM1R” for “MM1S”, “MM” for “MINI”, “cells” for “cells (Gold-Leikin R E, et al., J Lab Clin Invest. 1980; 113:335-345)”, “patient (Goldman-Leikin R E, et al., J Lab Clin Invest. 1980, 13:335-345).” for “patient.”, “Production). When the cells in culture were enough for implantation, they washed with serum free Hank's balanced salt solution (HBSS). Finally the cells were diluted in HBSS for implantation.” for “Production).”
as §3
During each animal study, tumors were measured with calipers, tumor size determined using the above mentioned formula, and tumor size changes in percentage calculated. Mouse body weights were measured with a scale twice per week. […] T/C values were calculated using the following formula: % T/C=100×ΔT/ΔC if ΔT>0. […]
The treatment period was 18 days. Tumor sizes and body weights were measured again on the last day of the study.

Raf, MEK, and ERK = test: Western blot of RAF-MEK-ERK pathway in H460, A375, BT-474 and H1975 cells; type: cell-based; conditions: 100 nM, 16 hours
Experimental: (§4) Cell extracts were prepared in the presence of SDS and 2-mercaptoethanol and resolved in polyacrylamide gels. Proteins were transferred to nitrocellulose filter and blotting was done using standard procedures with blocking solutions (Li-Cor Bioscience) containing the indicated primary antibody. Primary antibodies against p-EGFR, EGFR, p-HER2, HER2, p-HER3, HER3, p-MET, MET, p-bRaf, p-cRaf, pMEK, MEK, p-ERK, ERK and tubulin were purchased from Cell Signaling Technology. Secondary antibody conjugated with IRdye 680, 800CW were used and the signal was detected with Li-Cor Odyssey Imager.
One major limitation of PI3K inhibitors in the treatment of cancers is the activation of the RAF-MEK-ERK pathway. HDAC inhibitors are able to inhibit kinase levels in this signaling pathway in cancer cells via epigenetic modification.

[2] = tested on: EGFR, HER2, HER3, and MET; test: Western blot of receptor tyrosine kinases in H1975 and BT-474 cells; type: cell-based; conditions: H1975 NSCLC cells and BT-474 breast cancer cells; 16 h
Experimental: as §4

**Q.** Which “Area under the Curve” value ([1]; IV 5 mg/kg, plasma) does the source give for `COc1ccc(-c2nc(N3CCOCC3)c3sc(CN(C)c4ncc(C(=O)NO)cn4)cc3n2)cn1` [Compound 1, N-hydroxy-2-(((2-(6-methoxypyridin-3-yl)-4-morpholinothieno[3,2-d]pyrimidin-6-yl)methyl)(methyl)amino)pyrimidine-5-carboxamide] here?
**A.** 2977.47 ng/mL * hr

**Q.** What about the Half-life ([1]; IV 5 mg/kg, plasma) of the same compound?
**A.** 1.85 h

**Q.** And the “Area under the Curve” value ([1]; PO Capsule 5 mg/kg, plasma)?
**A.** 450.4 ng/mL * hr

**Q.** And the Half-life ([1]; PO Capsule 5 mg/kg, plasma)?
**A.** 4.88 h

**Q.** And the bioavailability ([1]; dog, plasma, PO Capsule 5 mg/kg)?
**A.** 15.1%

**Q.** What about the Cmax ([1]; dog, IV 5 mg/kg, plasma) of the same compound?
**A.** 6160 ng/mL

**Q.** And the Cmax ([1]; dog, PO Capsule 5 mg/kg, plasma)?
**A.** 312 ng/mL

**Q.** And the “Plasma levels after oral dosing” value ([1]; oral 5 mg/kg in enteric capsules)?
**A.** Significant plasma levels

**Q.** What about the T/C value (MM1S subcutaneous tumor; day 14, p<0.0001) of the same compound?
**A.** 27.37%

**Q.** And the “Body weight and side effects” value (MM1S subcutaneous tumor; single agent, 15 days)?
**A.** No body weight loss or other side effects were observed

**Q.** And the Tumor growth (MM1S subcutaneous tumor; single agent, 15 days)?
**A.** inhibited tumor growth

**Q.** What about the T/C value (MM1R subcutaneous tumor; day-17, p<0.0001) of the same compound?
**A.** 21.15%

**Q.** What about the “Body weight and side effects” value (MM1R subcutaneous tumor; single agent, 18 days) of the same compound?
**A.** No body weight loss or other side effects were observed

**Q.** What about the Tumor growth (MM1R subcutaneous tumor; single agent, 18 days) of the same compound?
**A.** inhibited tumor growth

**Q.** And the “Activation of Raf, MEK, and ERK” value (Raf, MEK, and ERK)?
**A.** suppressed activation of Raf, MEK, and ERK

**Q.** What about the “Levels of phosphorylated and total EGFR, HER2, HER3, and MET” value [2] of the same compound?
**A.** reduce the levels of phosphorylated and total receptor tyrosine kinases EGFR, HER2, HER3, and MET

— patent publication US11654136B2, “Phosphoinositide 3-kinase inhibitor with a zinc binding moiety” (Curis, Inc., priority 2011, dated 2023)
